The source made the active and inactive calls. The calls are words filed in the database; no cut-off is given here.
Legend:
Rattus norvegicus [1] = species: Rattus norvegicus; experiment: Inhibition of mitochondrial respiration in isolated Wistar rat mitochondria assessed as decrease in succinate/ADP-stimulated respiratory control ratio up to 16 uM by Clark oxygen electrode method; type: functional
Rattus norvegicus [2] = species: Rattus norvegicus; experiment: Induction of inner mitochondrial membrane permeabilization in isolated Wistar rat mitochondria assessed as K+ permeabilization at 5 to 75 uM measured for 10 to 30 mins; type: functional
Rattus norvegicus [3] = species: Rattus norvegicus; experiment: Inhibition of ETC3 in isolated Wistar rat mitochondria assessed as decrease in oxidized cyochrome-c reduction at 50 uM incubated for 3 to 5 mins and measured for up to 3 mins
NB-4 [4] = experiment: Induction of mitochondrial membrane potential loss in human NB4 cells assessed as decrease in intracellular ATP level at 0.6 to 1.2 uM after 24 hrs; type: functional, cell-based
Rattus norvegicus [5] = species: Rattus norvegicus; experiment: Induction of mitochondrial membrane potential loss in isolated Wistar rat mitochondria assessed as decline phase rate constant at 50 uM using pyruvate as substrate up to 3 hrs by microcalorimetry; type: functional
NB-4 [6] = experiment: Reduction in cell viability in human NB4 cells up to 2.4 uM up to 24 hrs by MTT assay; type: functional, cell-based
Rattus norvegicus [7] = species: Rattus norvegicus; experiment: Inhibition of ETC4 in isolated Wistar rat mitochondria assessed as decrease in cyochrome-c oxidation at 5 to 15 uM incubated for 3 to 5 mins and measured for up to 3 mins
NB-4 [8] = experiment: Induction of apoptosis in human NB4 cells assessed as early apoptotic cells after 24 hrs in presence of Nec-1 by Annexin V-FITC/propidium iodide staining based flow cytometry (reference value: 5%); type: functional
SGC-7901 = experiment: Cytotoxicity against human SGC7901 cells after 48 hrs by MTT assay; type: functional, cell-based; conditions: SGC-7901, 48 h
Rattus norvegicus [9] = species: Rattus norvegicus; experiment: Induction of mitochondrial membrane potential loss in isolated Wistar rat mitochondria assessed as maximum power output time at 50 uM using pyruvate as substrate up to 3 hrs by microcalorimetry; type: functional
Rattus norvegicus [10] = species: Rattus norvegicus; experiment: Induction of mitochondrial swelling in isolated Wistar rat mitochondria at 30 uM in presence of ruthenium red; type: functional
Rattus norvegicus [11] = species: Rattus norvegicus; experiment: Induction of mitochondrial membrane potential loss in isolated Wistar rat mitochondria assessed as maximum power output at 50 uM using pyruvate as substrate up to 3 hrs by microcalorimetry; type: functional
NB-4 [12] = experiment: Cytotoxicity against human NB4 cells assessed as reduction in cell viability at 1 to 1.2 uM after 24 hrs in presence of DMP by trypan blue assay; type: functional, cell-based
NB-4 [13] = experiment: Induction of ROS generation in human NB4 cells at 0.6 uM after 1 to 6 hrs by DCFH-DA staining based flow cytometry; type: functional, cell-based
MCF7 [14] = experiment: Cytotoxicity against human MCF7 cells after 48 hrs by MTT assay; type: functional, cell-based; conditions: MCF7, 48 h
NB-4 [15] = experiment: Induction of apoptosis in human NB4 cells assessed as decrease in cell size at 0.6 to 1.2 uM after 24 hrs by Hoechst 33342/propidium iodide staining based confocal microscopic method; type: functional
HEK293 [16] = experiment: Cytotoxicity against HEK293 cells after 24 hrs by MTT assay; type: cell-based; conditions: Homo sapiens, HEK293, 24 h
NB-4 [17] = experiment: Cytotoxicity against human NB4 cells assessed as reduction in cell viability at 1.2 uM after 24 hrs in presence of PDHC-E2 co-enzyme LA by trypan blue assay; type: functional, cell-based
Rattus norvegicus [18] = species: Rattus norvegicus; experiment: Induction of mitochondrial membrane potential loss in isolated Wistar rat mitochondria assessed as maximum power output time at 100 uM using pyruvate as substrate up to 3 hrs by microcalorimetry; type: functional
NB-4 [19] = experiment: Cytotoxicity against human NB4 cells after 24 hrs by MTT assay; type: functional, cell-based; conditions: NB-4, 24 h
NB-4 [20] = experiment: Induction of apoptosis in human NB4 cells assessed as necrotic cells after 24 hrs by Annexin V-FITC/propidium iodide staining based flow cytometry (reference value: 0.1%); type: functional
Rattus norvegicus [21] = species: Rattus norvegicus; experiment: Induction of mitochondrial membrane potential loss in isolated Wistar rat mitochondria assessed as decline phase rate constant at 100 uM using pyruvate as substrate up to 3 hrs by microcalorimetry; type: functional
NB-4 [22] = experiment: Induction of apoptosis in human NB4 cells assessed as necrotic cells after 24 hrs in presence of Z-VAD-fmk by Annexin V-FITC/propidium iodide staining based flow cytometry (reference value: 0.1%); type: functional
Rattus norvegicus [23] = species: Rattus norvegicus; experiment: Induction of mitochondrial membrane potential loss in isolated Wistar rat mitochondria assessed as maximum power output at 100 uM using pyruvate as substrate up to 3 hrs by microcalorimetry; type: functional
Rattus norvegicus [24] = species: Rattus norvegicus; experiment: Induction of mitochondrial membrane potential loss in isolated Wistar rat mitochondria assessed as stationary increase phase rate constant at 50 uM using pyruvate as substrate up to 3 hrs by microcalorimetry; type: functional
Rattus norvegicus [25] = species: Rattus norvegicus; experiment: Induction of mitochondrial swelling in isolated Wistar rat mitochondria at 30 uM in presence of cyclosporin-A; type: functional
NB-4 [26] = experiment: Induction of apoptosis in human NB4 cells assessed as necrotic cells after 24 hrs in presence of Nec-1 by Annexin V-FITC/propidium iodide staining based flow cytometry (reference value: 0.1%); type: functional
HEK293 [27] = experiment: Cytotoxicity against HEK293 cells after 48 hrs by MTT assay; type: cell-based; conditions: Homo sapiens, HEK293, 48 h
NB-4 [28] = experiment: Induction of ROS generation in human NB4 cells up to 1.2 uM up to 24 hrs by DCFH-DA staining based flow cytometry; type: functional, cell-based
NB-4 [29] = experiment: Induction of apoptosis in human NB4 cells assessed as late apoptotic cells after 24 hrs in presence of Nec-1 by Annexin V-FITC/propidium iodide staining based flow cytometry (reference value: 2.9%); type: functional
HL-60 = experiment: Cytotoxicity against human HL60 cells after 24 hrs by MTT assay; type: functional, cell-based; conditions: HL-60, 24 h
MCF7 [30] = experiment: Cytotoxicity against human MCF7 cells after 24 hrs by MTT assay; type: functional, cell-based; conditions: MCF7, 24 h
NB-4 [31] = experiment: Cytotoxicity against human NB4 cells assessed as reduction in cell viability at 1 to 1.2 uM after 24 hrs in presence of DMSA by trypan blue assay; type: functional, cell-based
NB-4 [32] = experiment: Induction of mitochondrial membrane potential loss in human NB4 cells at 0.6 uM after 1 hr by JC1 staining based flow cytometry (reference value: 27.7%); type: functional
NB-4 [33] = experiment: Induction of apoptosis in human NB4 cells assessed as nuclear condensation at 0.6 to 1.2 uM after 24 hrs by Hoechst 33342/propidium iodide staining based confocal microscopic method; type: functional, cell-based
Rattus norvegicus [34] = species: Rattus norvegicus; experiment: Induction of inner mitochondrial membrane permeabilization in isolated Wistar rat mitochondria assessed as H+ permeabilization at 5 to 75 uM measured for 10 to 30 mins; type: functional
Rattus norvegicus [35] = species: Rattus norvegicus; experiment: Induction of mitochondrial swelling in isolated Wistar rat mitochondria at 30 uM in presence of EGTA; type: functional
NB-4 [36] = experiment: Induction of apoptosis in human NB4 cells assessed as live cells after 24 hrs in presence of Nec-1 by Annexin V-FITC/propidium iodide staining based flow cytometry (reference value: 92%); type: functional
NB-4 [37] = experiment: Induction of apoptosis in human NB4 cells assessed as live cells after 24 hrs by Annexin V-FITC/propidium iodide staining based flow cytometry (reference value: 92%); type: functional
NB-4 [38] = experiment: Induction of apoptosis in human NB4 cells assessed as DNA fragmentation at 0.6 to 1.2 uM after 24 hrs by Hoechst 33342/propidium iodide staining based confocal microscopic method; type: functional, cell-based
NB-4 [39] = experiment: Cytotoxicity against human NB4 cells after 48 hrs by MTT assay; type: functional, cell-based; conditions: NB-4, 48 h

O=C(CC[P+](c1ccccc1)(c1ccccc1)c1ccccc1)Nc1ccc([As]2SCCCS2)cc1.[Cl-]
inhibition (Rattus norvegicus [1]): Active | Activity (Rattus norvegicus [2]): Active | inhibition (Rattus norvegicus [3]): Active | Activity (NB-4 [4]): Active | K (Rattus norvegicus [5]): -9.35 ×10⁻³ /min | Activity (NB-4 [6]): Active | inhibition (Rattus norvegicus [7]): Active | Activity (NB-4 [8]): 11.6% | IC50 (SGC-7901): 990 nM | TIME (Rattus norvegicus [9]): 47.6 h | Activity (Rattus norvegicus [10]): inactive | Activity (Rattus norvegicus [11]): 107 W | Activity (NB-4 [12]): inactive | Activity (NB-4 [13]): inactive | IC50 (MCF7 [14]): 1460 nM | Activity (NB-4 [15]): Active | IC50 (HEK293 [16]): 4630 nM | Activity (NB-4 [17]): inactive | TIME (Rattus norvegicus [18]): 51.8 h | IC50 (NB-4 [19]): 650 nM | Activity (NB-4 [20]): 1.4% | K (Rattus norvegicus [21]): -9.13 ×10⁻³ /min | Activity (NB-4 [22]): 0.2% | Activity (Rattus norvegicus [23]): 112 W | K (Rattus norvegicus [24]): 0.46 ×10⁻³ /min | Activity (Rattus norvegicus [25]): inactive | Activity (NB-4 [26]): 1% | IC50 (HEK293 [27]): 2080 nM | Activity (NB-4 [28]): Active | Activity (NB-4 [29]): 16.2% | IC50 (HL-60): 3580 nM | IC50 (MCF7 [30]): 4440 nM | Activity (NB-4 [31]): inactive | Activity (NB-4 [32]): 40.9% | Activity (NB-4 [33]): Active | Activity (Rattus norvegicus [34]): Active | Activity (Rattus norvegicus [35]): inactive | Activity (NB-4 [36]): 71.2% | Activity (NB-4 [37]): 69.3% | Activity (NB-4 [38]): Active | IC50 (NB-4 [39]): 510 nM

Source: ChEMBL document CHEMBL4330144, “A mitochondria-targeted organic arsenical accelerates mitochondrial metabolic disorder and function injury” (Bioorg Med Chem, 2019)
